Consider one compound from patent publication US4808603A, “3,5-diacyl-2,6-dialkyl-4-aryl-1,4-dihydropyridines, their use, and pharmaceutical compositions thereof” (Ciba-Geigy Corporation, priority 1985, dated 1989).

For assay [1], the system named is isolated perfused mesenteric vessels of rats. Kind of assay: inhibition of potassium-induced vasoconstriction in isolated perfused mesenteric vessels of rats. The note with it: Rattus norvegicus, in vitro. Format: cell-based. An excerpt: (§1) The compounds of the formula I and salts thereof have valuable pharmacological properties, especially in the cardiovascular field. […] 177, 21-30, (1965)] by way of the inhibition of potassium- and noradrenalininduced vasoconstriction, for example using 2,6-dimethyl-4-(3-nitrophenyl)-1,4-dihydropyridine-3,5-dicarboxylic acid 3-methyl ester 5-[2-[N-(4-(4-fluorophenyl)-4-oxo-n-butyl)-N-methylamino]ethyl ester] at a concentration of approx. 10^-8 mol/liter (IC50) for the inhibition of potassium-induced vasoconstriction, and at a concentration of approx. 3×10^-10 mol/liter (IC50) for the inhibition of noradrenalin-induced vasoconstriction. […] Pharmacol. 21, 301-304 (1982)], for example using 2,6-dimethyl-4-(3-nitrophenyl)-1,4-dihydropyridine-3,5-dicarboxylic acid 3-methyl ester 5-[2-[N-(4-(4-fluorophenyl)-4-oxo-n-butyl)-N-methylamino]ethyl ester] at a concentration of approx. 10^-8 mol/liter (IC50).

For assay [2] the test system is unchanged. Put plainly: inhibition of noradrenalin-induced vasoconstriction in isolated perfused mesenteric vessels of rats. In kind it is cell-based. Conditions: Rattus norvegicus, in vitro.
Text: as §1

The next assay deals with renally hypertonic rats. Kind of assay: reduction in blood pressure in renally hypertonic rats. Format: in vivo. The note with it: 2 hours after p.o. administration of 15 mg/kg. The procedure: For example, 2 hours after p.o. administration of 15 mg/kg of 2,6-dimethyl-4-(3-nitrophenyl)-1,4-dihydropyridine-3,5dicarboxylic acid 3-methyl ester 5-[2-[N-(4-(4-fluorophenyl)-4-oxo-n-butyl)-N-methylamino]ethyl ester] to renally hypertonic rats, a reduction in blood pressure of approx. 45 mm Hg may be observed.

The target of a further assay is T1, serotonin2 -receptors (Rattus norvegicus, UniProt P14842).
T1 construct: membranes of rats' brains; from tissue; host or cells: rat brain membranes
T1 sequence (P14842 whole entry): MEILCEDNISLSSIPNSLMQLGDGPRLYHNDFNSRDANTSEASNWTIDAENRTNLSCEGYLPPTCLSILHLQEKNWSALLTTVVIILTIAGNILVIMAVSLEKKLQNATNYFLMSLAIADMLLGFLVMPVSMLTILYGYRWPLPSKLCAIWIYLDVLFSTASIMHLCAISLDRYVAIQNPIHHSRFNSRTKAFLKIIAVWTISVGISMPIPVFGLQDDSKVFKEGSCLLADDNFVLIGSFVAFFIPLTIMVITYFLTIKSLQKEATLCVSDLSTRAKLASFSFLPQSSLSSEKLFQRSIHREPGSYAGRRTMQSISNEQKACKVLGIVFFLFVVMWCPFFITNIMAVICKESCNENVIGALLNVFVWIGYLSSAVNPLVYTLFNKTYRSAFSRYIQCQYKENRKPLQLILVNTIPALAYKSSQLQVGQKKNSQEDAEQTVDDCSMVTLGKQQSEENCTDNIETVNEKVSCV
Kind of assay: displacement of 3H-ketanserin from its bonding sites in membranes of rats' brains. Format: binding. The note with it: read-out: IC50, displacement of 3H-ketanserin from serotonin2-receptor bonding sites.
Text: as §1

The structures appear in SMILES notation.

Broadly, the IC50 is the midpoint of a concentration-inhibition curve.

With `COC(=O)C1=C(C)NC(C)=C(C(=O)OCCN(C)CCCC(=O)c2ccc(F)cc2)C1c1cccc([N+](=O)[O-])c1` (stereo not shown) [2,6-dimethyl-4-(3-nitrophenyl)-1,4-dihydropyridine-3,5-dicarboxylic acid 3-methyl ester 5-[2-[N-(4-(4-fluorophenyl)-4-oxo-n-butyl)-N-methylamino]ethyl ester]], the IC50 in assay [1] is approximately 0.01 µM; in assay [2], approximately 0.0003 µM; on serotonin2 -receptors, approximately 0.01 µM. Also, the “reduction in blood pressure” value with renally hypertonic rats is listed as “approx. 45 mm Hg”.
